The target of the assay is T1, Sodium/potassium/calcium exchanger 4 (Homo sapiens, UniProt Q8NFF2).
T1 sequence (Q8NFF2 whole entry): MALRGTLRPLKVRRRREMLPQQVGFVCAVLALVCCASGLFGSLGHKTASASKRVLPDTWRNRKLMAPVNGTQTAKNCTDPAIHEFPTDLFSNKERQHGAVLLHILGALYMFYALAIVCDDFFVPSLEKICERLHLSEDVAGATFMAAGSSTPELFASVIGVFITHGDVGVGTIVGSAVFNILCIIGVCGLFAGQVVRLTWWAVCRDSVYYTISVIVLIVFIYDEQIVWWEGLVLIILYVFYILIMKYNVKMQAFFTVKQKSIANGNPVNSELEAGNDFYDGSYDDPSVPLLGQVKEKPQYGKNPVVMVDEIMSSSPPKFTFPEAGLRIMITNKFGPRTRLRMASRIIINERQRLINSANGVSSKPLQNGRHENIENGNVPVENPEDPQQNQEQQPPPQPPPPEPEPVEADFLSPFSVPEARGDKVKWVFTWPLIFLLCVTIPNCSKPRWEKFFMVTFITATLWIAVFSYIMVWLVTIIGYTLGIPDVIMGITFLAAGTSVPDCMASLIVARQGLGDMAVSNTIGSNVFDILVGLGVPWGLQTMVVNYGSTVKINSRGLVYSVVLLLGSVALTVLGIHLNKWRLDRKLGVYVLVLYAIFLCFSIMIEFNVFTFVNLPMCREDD
The assay can be described thus: Substrate uptake by the Sodium/Potassium/Calcium Exchanger 4 (NCKX4, SLC24A4) as assessed by Screen Questtrade mark Fluo-8 NW calcium assay kit in HEK-293 JumpIN-SLC24A4 cells (PubChem AID: 1794814). The format is functional, cell-based, HEK293.

In general, EC50 refers to the concentration at which the effect is half-maximal. As to `[Cl-].[K+]` [POTASSIUM CHLORIDE], the EC50 came out at 174 mM.

The record behind these values is ChEMBL document CHEMBL5209574, “Fluo-8 based assay for SLC24A4 using HEK293 JumpIn SLC24A4 OE cells” (2022).
